Reference: patent publication US20240382465A1, “AROMATIC ACETYLENE DERIVATIVE, AND PREPARATION METHOD THEREFOR AND USE THEREOF” (priority 2021, published 2024)
≈ marks a conversion by molar mass, not a printed value.

The compounds below were run on E. coli ATCC 25922 (assay: Antibacterial activity, MIC by broth microdilution (CLSI)). Conditions: Escherichia coli, ATCC25922; E. coli ATCC 25922, 35° C., 18 to 24 hours; read-out: MIC(E. coli).
Format: cell-based
Description: The in vitro minimum inhibitory concentration (MIC) was determined in accordance with the CLSI guidelines, and was measured using the broth microdilution method.
The experimental process is briefly described as follows: The test compound was dissolved in DMSO to prepare a […] stock solution, which was then prepared into 11 twice-diluted 100× high-concentration working solutions (the final concentration of the system was 64 μg/mL-0.06 μg/mL) using DMSO. The strains (K. pneumoniae ATCC13883 and E. coli ATCC 25922) frozen in −80° C. glycerol were inoculated into solid agar medium, placed in an incubator at 35° C. for 18-24 hours of incubation. After the preparation of strains was completed, an appropriate amount of solid plate culture was collected, resuspended in physiological saline, and mixed well. The bacterial suspension was adjusted to a suitable turbidity using a turbidity meter, containing approximately 1×10^8 cfu/mL bacteria. Then the bacterial suspension with the adjusted turbidity was diluted to a bacterial concentration of 5×10^5 cfu/ml using the culture medium for measurement, to complete the preparation of the inoculum solution. 198 μL of the inoculum solution was inoculated into a 96-well plate, and then added with 2 μL of a 100× high-concentration working solution of the compound. Then the 96-well plate was placed at 35° C. for 18 to 24 hours of incubation.
`C[C@H](O)c1nccn1Cc1cc(-c2ccc(C#Cc3ccc(N4CCOCC4)cc3)cc2)on1` [Example 5] showed an MIC of 1 µg/mL (≈ 2.2 µM). For `C[C@H](O)c1nccn1Cc1cc(-c2ccc(C#Cc3ccc(CN4CCOCC4C(=O)O)cc3)cc2)on1` (stereo partly drawn) [Example 20, 4-(4-((4-(3-((2-((S)-1-hydroxyethyl)-1H-imidazol-1-yl)methyl)isoxazol-5-yl)phenyl)ethynyl)benzyl)morpholin-3-carboxylic acid], the MIC was 4 µg/mL (≈ 7.8 µM). Work on `C[C@H](O)c1nccn1Cc1coc(-c2ccc(C#Cc3ccc(CN4CCC(O)CC4)cc3)cc2)n1` [Example 22, (S)-1-(4-((4-(4-((2-(1-hydroxyethyl)-1H-imidazol-1-yl)methyl)oxazol-2-yl)phenyl)ethynyl)benzyl)piperidin-4-ol] yielded an MIC of 4 µg/mL (≈ 8.29 µM).

What follows are compounds tested against recombinant Pseudomonas aeruginosa LpxC (Pseudomonas aeruginosa (strain ATCC 15692 / DSM 22644 / CIP 104116 / JCM 14847 / LMG 12228 / 1C / PRS 101 / PAO1), UniProt P47205) (assay: Inhibition of LpxC enzymatic activity (fluorescamine assay)). Conditions: recombinant P. aeruginosa LpxC 5 nM, substrate 10 μM, 25° C., 120 minutes; read-out: IC50.
Format: biochemical
Description: The degree of inhibition of the enzymatic activity of recombinant Pseudomonas aeruginosa LpxC by the compounds of the present disclosure under in vitro conditions was determined using the following method.
The experimental procedure is briefly described as follows: The test compound was first dissolved in DMSO to prepare a 10 mM stock solution. The reaction was carried out in a 96-well microplate. First, 20 μL of recombinant Pseudomonas aeruginosa LpxC (purchased from Signalway Antibody, product number AP74647-2) was added to each well, with a final concentration of 5 nM. 5 μL of the compound to be tested was then added, and the compound was diluted 4 times to 8 concentration points with a concentration range of 0.61-10,000 nM. 5 μL of LpxC substrate UDP-3-O—(R-3-hydroxydecanoyl)-GlcNAc (purchased from Biosynth Carbosynth, product number: mu75071) was added, with a final concentration of the substrate of 10 μM. The plate was incubated at 25° C. for 120 minutes. Then 20 μL of 2.0 mg/mL fluorescamine (purchased from sigmaaldrich, product number: F9015, solvent: 1:1 dimethylformamide/acetonitrile) was added to the reaction system, and mixed well for 10 minutes of reaction. Finally, 50 μL of 200 mM sodium phosphate buffer (pH 8.0) was added to terminate the reaction. Reading was carried out using a microplate reader (BMG), and the excitation and emission wavelengths were 390 and 495 nm respectively. By comparing with the fluorescence intensity ratio of the control group ([…]), the percentage inhibition rate of the compound at each concentration was calculated.
`C[C@H](O)c1nccn1Cc1cc(-c2ccc(C#Cc3ccc(N4CCOCC4)cc3)cc2)on1` [Example 5] showed an IC50 of 72.3 nM. In the case of `C[C@H](O)c1nccn1Cc1cc(-c2ccc(C#Cc3ccc(CN4CCOCC4C(=O)O)cc3)cc2)on1` (stereo partly drawn) [Example 20, 4-(4-((4-(3-((2-((S)-1-hydroxyethyl)-1H-imidazol-1-yl)methyl)isoxazol-5-yl)phenyl)ethynyl)benzyl)morpholin-3-carboxylic acid], the IC50 is reported as 9.86 nM. For `C[C@H](O)c1nccn1Cc1coc(-c2ccc(C#Cc3ccc(CN4CCC(O)CC4)cc3)cc2)n1` [Example 22, (S)-1-(4-((4-(4-((2-(1-hydroxyethyl)-1H-imidazol-1-yl)methyl)oxazol-2-yl)phenyl)ethynyl)benzyl)piperidin-4-ol], the IC50 was 98.9 nM. Compound `C[C@H](O)c1nccn1Cc1cc(-c2ccc(C#Cc3ccc(N4CCC(O)CC4)cc3)cc2)on1` [Example 41, (S)-1-(4-((4-(3-((2-(1-hydroxyethyl)-1H-imidazol-1-yl)methyl)isoxazol-5-yl)phenyl)ethynyl)phenyl)piperidin-4-ol] has an IC50 of 26.3 nM. For `C[C@H](O)c1nccn1Cc1cc(-c2ccc(C#Cc3ccc(C(=O)N4CC(O)C4)cc3)cc2)on1` [Example 68, (S)-(3-hydroxyazetidin-1-yl)(4-((4-(3-((2-(1-hydroxyethyl)-1 H-imidazol-1-yl)methyl)isoxazol-5-yl)phenyl)ethynyl)phenyl)methanone], the IC50 was 68.3 nM. With `C[C@H](O)c1nccn1Cc1cc(-c2ccc(C#Cc3ccc(C(=O)NCC(=O)O)cc3)cc2)on1` [Example 74, (S)-(4-((4-(3-((2-(1-hydroxy-ethyl)-1H-imidazol-1-yl)methyl)isoxazol-5-yl)phenyl)ethynyl)benzoyl)glycinate] the IC50 was 21.2 nM. `C[C@H](O)c1nccn1Cc1cc(-c2ccc(C#Cc3ccc(OC4CCC(C(=O)O)CC4)cc3)cc2)on1` (stereo partly drawn) [Example 79, (S)-4-(4-((4-(3-((2-(1-hydroxyethyl)-1H-imidazol-1-yl)methyl)isoxazol-5-yl)phenyl)ethynyl)phenoxy)cyclohexane-1-carboxylic acid] showed an IC50 of 42.5 nM. For `C[C@H](O)c1nccn1Cc1cc(-c2ccc(C#Cc3ccc(OCCN4CCOCC4)cc3)cc2)on1` [Example 80, (S)-1-(1-((5-(4-((4-(2-morpho-linoethoxy)phenyl)ethynyl)phenyl)isoxazol-3-yl)methyl)-1H-imidazol-2-yl)ethan-1-ol], the IC50 was 64.9 nM. `C[C@H](O)c1nccn1Cc1cc(-c2ccc(C#Cc3ccc(S(N)(=O)=O)cc3)cc2)on1` [Example 83, (S)-4-((4-(3-((2-(1-hydroxy-ethyl)-1H-imidazol-1-yl)methyl)isoxazol-5-yl)phenyl)ethynyl) benzenesulfonamide] showed an IC50 of 54.7 nM. Work on `C[C@H](O)c1nccn1Cc1cc(-c2ccc(C#Cc3ccc(C(C)(C)N4CCOCC4)cc3)cc2)on1` [Example 94, (S)-1-(1-((5-(4-((4-(2-morpho-linopropan-2-yl)phenyl)ethynyl)phenyl)isoxazol-3-yl)methyl)-1H-imidazol-2-yl)ethan-1-ol] yielded an IC50 of 76.5 nM. `C[C@H](O)c1nccn1Cc1cc(-c2ccc(C#Cc3ccc(CN4CCC(O)C(F)(F)C4)cc3)cc2)on1` (stereo partly drawn) [Example 97, 3,3-difluoro-1-(4-((4-(3-((2-((S)-1-hydroxyethyl)-1H-imidazol-1-yl)methyl)isoxazol-5-yl)phenyl)ethynyl)benzyl) piperidin-4-ol] showed an IC50 of 31.9 nM. With `C[C@H](O)c1nccn1Cc1cc(-c2ccc(C#Cc3ccc(Cn4ccnc4)cc3)cc2)on1` [Example 98, (S)-1-(1-((5-(4-((4-((1H-imida-zol-1-yl)methyl)phenyl)ethynyl)phenyl)isoxazol-3-yl)methyl)-1H-imidazol-2-yl)ethan-1-ol] the IC50 was 78.5 nM. Compound `CC(=O)c1ccc(C#Cc2ccc(-c3cc(Cn4ccnc4[C@H](C)O)no3)cc2)cn1` [Example 103, (S)-1-(5-((4-(3-((2-(1-hydroxyethyl)-1H-imidazol-1-yl)methyl)isoxazol-5-yl)phenyl)ethynyl)pyridin-2-yl)ethan-1-one] has an IC50 of 46.8 nM. Compound `C[C@H](O)c1nccn1Cc1cc(-c2ccc(C#Cc3ccc(CN4CCOCC4)cc3)cn2)no1` [Example 104, (S)-1-(1-((3-(5-((4-(morpholino-methyl)phenyl)ethynyl)pyridin-2-yl)isoxazol-5-yl)methyl)-1H-imidazol-2-yl)ethan-1-ol] has an IC50 of 58.6 nM. `C[C@H](O)c1nccn1Cc1cc(-c2ccc(C#Cc3ccc(C(=O)NCCO)nc3)cc2)on1` [Example 105, (S)-N-(2-hydroxyethyl)-5-((4-(3-((2-(1-hydroxyethyl)-1H-imidazol-1-yl)methyl)isoxazol-5-yl)phenyl)ethynyl) picolinamide] showed an IC50 of 22.6 nM. In the case of `C[C@H](O)c1nccn1Cc1cc(-c2ccc(C#Cc3ccccc3C(=O)O)cc2)on1` [Example 106, (S)-2-((4-(3-((2-(1-hydroxyethyl)-1H-imidazol-1-yl)methyl)isoxazol-5-yl)phenyl)ethynyl) benzoic acid], the IC50 is reported as 68.9 nM. With `C[C@H](O)c1nccn1Cc1cc(-c2ccc(C#Cc3ccc(CN4CC(CO)C4)nc3)cc2)on1` [Example 113, (S)-1-(1-((5-(4-((6-((3-(hydroxymethyl)azetidin-1-yl)methyl)pyridin-3-yl)ethynyl)phenyl)isoxazol-3-yl)methyl)-1H-imidazol-2-yl)ethan-1-ol] the IC50 was 24.6 nM. Work on `C[C@H](O)c1nccn1Cc1cc(-c2ccc(C#Cc3ccc(CNCC(=O)O)nc3)cc2)on1` [Example 116] yielded an IC50 of 47.9 nM. `C[C@H](O)c1nccn1Cc1cc(-c2ccc(C#Cc3ccc(CN4CC(C(=O)O)C4)nc3)cc2)on1` [Example 117, (S)-1-((5-((4-(3-((2-(1-hydroxyethyl)-1H-imidazol-1-yl)methyl)isoxazol-5-yl)phenyl)ethynyl)pyridin-2-yl)methyl)azetidin-3-carboxylic acid] gave an IC50 of 18.5 nM. For `C[C@H](O)c1nccn1Cc1cc(-c2ccc(C#Cc3ccc(CN4CC(CC#N)C4)nc3)cc2)on1` [Example 118, (S)-2-(1-((5-((4-(3-((2-(1-hydroxyethyl)-1H-imidazol-1-yl)methyl)isoxazol-5-yl)phenyl)ethynyl)pyridin-2-yl)methyl)azetidin-3-yl)acetonitrile], the IC50 was 16.5 nM. `C[C@H](O)c1nccn1Cc1cc(-c2ccc(C#Cc3ccc(CN4CC(C#N)C4)nc3)cc2)on1` [Example 119, (S)-1-((5-((4-(3-((2-(1-hydroxyethyl)-1H-imidazol-1-yl)methyl)isoxazol-5-yl)phenyl)ethynyl)pyridin-2-yl)methyl)azetidin-3-carbonitrile] showed an IC50 of 7.42 nM. Compound `C[C@H](O)c1nccn1Cc1cc(-c2ccc(C#Cc3ccc(C#N)nc3)cc2)on1` [Example 120, (S)-5-((4-(3-((2-(1-hydroxyethyl)-1H-imidazol-1-yl)methyl)isoxazol-5-yl)phenyl)ethynyl)picolinonitrile] has an IC50 of 77.1 nM. In the case of `C[C@H](O)c1nccn1Cc1cc(-c2ccc(C#Cc3ccc(CN4CC(O)C4)nc3)cc2)on1` [Example 121, (S)-1-((5-((4-(3-((2-(1-hydroxyethyl)-1H-imidazol-1-yl)methyl)isoxazol-5-yl)phenyl)ethynyl)pyridin-2-yl)methyl)azetidin-3-ol], the IC50 is reported as 22.3 nM. `C[C@H](O)c1nccn1Cc1cc(-c2ccc(C#Cc3ccc(CN4CC(CC(N)=O)C4)nc3)cc2)on1` [Example 122, (S)-2-(1-((5-((4-(3-((2-(1-hydroxyethyl)-1H-imidazol-1-yl)methyl)isoxazol-5-yl)phenyl)ethynyl)pyridin-2-yl)methyl)azetidin-3-yl)acetamide] showed an IC50 of 6.71 nM. For `C[C@H](O)c1nccn1Cc1cc(-c2ccc(C#Cc3ccc(CN4CC(C(N)=O)C4)nc3)cc2)on1` [Example 123, (S)-1-((5-((4-(3-((2-(1-hydroxyethyl)-1H-imidazol-1-yl)methyl)isoxazol-5-yl)phenyl)ethynyl)pyridin-2-yl)methyl)azetidin-3-carboxamide], the IC50 was 8.22 nM.
